pIC50: −log10 of the molar value.
What follows are compounds tested against T1, JAK3 (JH1 and JH2 domain) (Homo sapiens, UniProt P52333) (assay: JAK3 Kinase Assay (ELISA of peptide substrate phosphorylation)). Conditions: purified JAK3 enzyme, 10 μM ATP, biotinylated peptide substrate, 1 hour at room temperature.
T1 sequence (P52333 521-1111 limits assumed): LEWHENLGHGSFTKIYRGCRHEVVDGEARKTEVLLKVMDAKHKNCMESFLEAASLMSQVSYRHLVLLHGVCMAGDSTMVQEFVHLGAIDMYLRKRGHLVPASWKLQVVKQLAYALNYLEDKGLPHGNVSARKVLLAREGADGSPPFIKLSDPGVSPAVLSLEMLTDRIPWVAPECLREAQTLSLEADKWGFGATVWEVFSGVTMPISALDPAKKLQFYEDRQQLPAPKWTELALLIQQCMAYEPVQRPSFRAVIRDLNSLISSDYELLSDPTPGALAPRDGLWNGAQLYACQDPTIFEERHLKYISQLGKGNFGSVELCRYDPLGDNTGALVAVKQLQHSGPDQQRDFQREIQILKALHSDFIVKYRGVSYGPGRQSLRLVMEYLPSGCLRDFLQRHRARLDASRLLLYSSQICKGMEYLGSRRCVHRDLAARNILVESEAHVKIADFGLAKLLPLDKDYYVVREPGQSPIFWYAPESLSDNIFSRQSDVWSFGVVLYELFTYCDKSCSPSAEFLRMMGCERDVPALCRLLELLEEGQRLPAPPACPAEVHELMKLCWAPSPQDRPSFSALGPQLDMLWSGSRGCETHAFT
Type: biochemical
Protocol: JAK3 enzyme activity was assayed relative to enzyme phosphorylation using the method described herein.
Sf21 cells derived from the ovarian tissue of the fall armyworm Spodotera frugiperda were obtained from Pharmingen (San Diego, Calif.) and maintained at a temperature of about 26-28° C. in 1 l Bellco spinner flasks at 60-90 rpm. Cell viability was maintained at 95-100%, as determined by a tryptan blue dye exclusion test.
Sf21 cells were infected with a baculovirus expression vector for JAK3 (JH1 and JH2 domain). After 48 hours of infection, cells were harvested and lysed in Tris-saline (pH 7.6) containing 2% NP-40 and a combination of protease inhibitors (Aprotinin, Pepstatin A, Pefabloc, E-64, Leupeptin, and Benzamidine) on ice for 45 minutes.
The JAK3 enzyme was purified from the lysate using glutathione sepharose beads and the enzyme activity was assessed in Costar flat bottom EIA/RIA 96 well plates. The plates were coated with Neutravidin (110 μL) (Pierce Neutravidin Biotin-binding Protein 31000; 1 mg/mL 1:100) diluted in PBS for 1 hour at room temperature. The plates were washed with PBS-0.1% Tween (3 times) to remove unbound Neutravidin, then 1% BSA (150 NIL) in PBS was added to each well to block non-specific binding. The plates was incubated for 1 hour at room temperature and stored at −80° C. until use.
JAK3 enzyme solution (48 μL) in 1.25×TK buffer (62.5 mM HEPES pH 7.5, 12.5 mM MgCl2) containing DTT (42 mM) (Sigma, St. Louis, Mo.) was added to each well of a polypropylene 96 well plate.
A test compound (5 μL) diluted in DMSO (48 μL) and biotinylated peptide enzyme substrate (5 μg diluted in TK buffer containing 10 μM ATP) were added to each well using the double dispense feature of a multichannel electronic biohit. Control wells received DMSO vehicle (5 μL). The contents of the wells were mixed for approximately 8 seconds using a multitube vortexer and the reaction mixture was incubated for 1 hour at room temperature.
After incubation, an aliquot of reaction mixture (90 μL) was transferred into a washed Neutravidin coated plate. The plate was incubated for 15 minutes at room temperature and washed 3 times with PBS-T. PY99 anti-phosphotyrosine antibody (100 μL/well) (Santa Cruz #sc-7020HRP diluted 1:6000 in 1× antibody buffer) was added into each well and the plate was incubated for 40 minutes at room temperature. The antibody buffer contained 10% BSA, 100 mM Tris (pH 7.5), 1M NaCl and 1% Tween 20. The plate washed 3 times with PBS-T, then TMB (100 pLXSigma, St. Louis, Mo.) was added to the each well. The plate was incubated for another 40 mins at room temperature in the dark. The reaction was stopped by the addition of 1M H2SO4 (50 μL/well) and the optical density was read at 450/650 nm.
Test compounds were assayed in triplicate at 16 concentrations at half-log dilutions starting at 200 μM. A maximum and minimum signal for the assay was determined on each plate. The percent inhibition of a test compound was calculated according to the formula [formula]
For a series of test concentrations, the IC50 was derived by graphing percent inhibition against the log of the concentrations tested for a given compound. For those compounds without an IC50, the percent inhibition results are shown at a test concentration of 1 μM.

| SMILES | pIC50 |
| --- | --- |
| O=C1NCc2c1c1c3ccccc3n3c1c1c2c2ccccc2n1CCC(O)CC3 (stereo not shown) [Cpd 28, 12,13-(3-hydroxy-pentan-1,5-yl)-6,7,12,13-tetrahydro-5-oxo-5H-indolo[2,3-a]pyrrolo[3,4-c]carbazole] | 7.24 |
| O=C1NCc2c1c1c3ccccc3n3c1c1c2c2ccccc2n1CCOCC3 [Cpd 29, 12,13-(3-oxa-pentan-1,5-yl)-6,7,12,13-tetrahydro-5-oxo-5H-indolo[2,3-a]pyrrolo[3,4-c]carbazole] | 7.85 |
| O=C1NCc2c1c1c3ccccc3n3c1c1c2c2ccccc2n1Cc1c[nH]cc1C3 [Cpd 30, 12,13-(1H-pyrrol[3,4-b]butan-1,4-yl)-6,7,12,13-tetrahydro-5-oxo-5H-indolo[2,3-a]pyrrolo[3,4-c]carbazole] | 7.17 |
| O=C1NC(=O)c2c1c1c3cc(Br)ccc3n3c1c1c2c2ccccc2n1CC(O)CC3 (stereo not shown) [Cpd 31, 3-bromo-12,13-(2-hydroxy-butan-1,4-yl)-12,13-dihydro-5,7-dioxo-6H-indolo[2,3-a]pyrrolo[3,4-c]carbazole] | 8.10 |
| O=C1NC(=O)c2c1c1c3cc(-c4cccnc4)ccc3n3c1c1c2c2ccccc2n1CC(O)CC3 (stereo not shown) [Cpd 32, 3-pyridin-3-yl-12,13-(2-hydroxy-butan-1,4-yl)-12,13-dihydro-5,7-dioxo-6H-indolo[2,3-a]pyrrolo[3,4-c]carbazole] | 7.46 |
| O=C1NC(=O)c2c1c1c3cc(-c4ccncc4)ccc3n3c1c1c2c2ccccc2n1CC(O)CC3 (stereo not shown) [Cpd 33, 3-pyridin-4-yl-12,13-(2-hydroxy-butan-1,4-yl)-12,13-dihydro-5,7-dioxo-6H-indolo[2,3-a]pyrrolo[3,4-c]carbazole] | 7.40 |
| O=C1NC(=O)c2c1c1c3cc(-c4cncnc4)ccc3n3c1c1c2c2ccccc2n1CC(O)CC3 (stereo not shown) [Cpd 34, 3-pyrimidin-5-yl-12,13-(2-hydroxy-butan-1,4-yl)-12,13-dihydro-5,7-dioxo-6H-indolo[2,3-a]pyrrolo[3,4-c]carbazole] | 7.18 |
| O=C1NC(=O)c2c1c1c3cc(-c4cnccn4)ccc3n3c1c1c2c2ccccc2n1CC(O)CC3 (stereo not shown) [Cpd 35, 3-pyrazin-2-yl-12,13-(2-hydroxy-butan-1,4-yl)-12,13-dihydro-5,7-dioxo-6H-indolo[2,3-a]pyrrolo[3,4-c]carbazole] | 7.89 |
| O=C(NCCCn1ccnc1)OC1CCn2c3ccccc3c3c4c(c5c6ccccc6n(c5c32)C1)C(=O)NC4=O (stereo not shown) [Cpd 36, 12,13-{2-[(3-imidazol-1-yl-prop-1-yl)carbamoyloxy]-butan-1,4-yl}-12,13-dihydro-5,7-dioxo-6H-indolo[2,3-a]pyrrolo[3,4-c]carbazole] | 7.52 |
| CC(C)(C)OC(=O)CNC(=O)OC1CCn2c3ccccc3c3c4c(c5c6ccccc6n(c5c32)C1)C(=O)NC4=O (stereo not shown) [Cpd 37, 12,13-{2-[(t-butoxycarbonylmethyl)carbamoyloxy]-butan-1,4-yl}-12,13-dihydro-5,7-dioxo-6H-indolo[2,3-a]pyrrolo[3,4-c]carbazole] | 8.40 |
| CCCNC(=O)OC1CCn2c3ccccc3c3c4c(c5c6ccccc6n(c5c32)C1)C(=O)NC4=O (stereo not shown) [Cpd 38, 12,13-[2-(prop-1-ylcarbamoyloxy)-butan-1,4-yl]-12,13-dihydro-5,7-dioxo-6H-indolo[2,3-a]pyrrolo[3,4-c]carbazole] | < 6.40 |
| CC(C)NC(=O)OC1CCn2c3ccccc3c3c4c(c5c6ccccc6n(c5c32)C1)C(=O)NC4=O (stereo not shown) [Cpd 39, 12,13-[2-(prop-2-ylcarbamoyloxy)-butan-1,4-yl]-12,13-dihydro-5,7-dioxo-6H-indolo[2,3-a]pyrrolo[3,4-c]carbazole] | 7.51 |
| CC(C)(C)NC(=O)OC1CCn2c3ccccc3c3c4c(c5c6ccccc6n(c5c32)C1)C(=O)NC4=O (stereo not shown) [Cpd 40, 12,13-[2-(t-butylcarbamoyloxy)-butan-1,4-yl]-12,13-dihydro-5,7-dioxo-6H-indolo[2,3-a]pyrrolo[3,4-c]carbazole] | < 6.40 |
| COCCNC(=O)OC1CCn2c3ccccc3c3c4c(c5c6ccccc6n(c5c32)C1)C(=O)NC4=O (stereo not shown) [Cpd 41, 12,13-{2-[(2-methoxy-ethyl)carbamoyloxy]-butan-1,4-yl}-12,13-dihydro-5,7-dioxo-6H-indolo[2,3-a]pyrrolo[3,4-c]carbazole] | 8.10 |
| O=C(NCCCN1CCOCC1)OC1CCn2c3ccccc3c3c4c(c5c6ccccc6n(c5c32)C1)C(=O)NC4=O (stereo not shown) [Cpd 42, 12,13-{2-[(3-morpholin-4-yl-prop-1-yl)carbamoyloxy]-butan-1,4-yl}-12,13-dihydro-5,7-dioxo-6H-indolo[2,3-a]pyrrolo[3,4-c]carbazole] | 6.83 |
| CN1CCN(CCCNC(=O)OC2CCn3c4ccccc4c4c5c(c6c7ccccc7n(c6c43)C2)C(=O)NC5=O)CC1 (stereo not shown) [Cpd 43, 12,13-(2-{[3-(4-methyl-piperazin-1-yl)prop-1-yl]carbamoyloxy}-butan-1,4-yl)-12,13-dihydro-5,7-dioxo-6H-indolo[2,3-a]pyrrolo[3,4-c]carbazole] | 6.95 |
| O=C1NC(=O)c2c1c1c3ccccc3n3c1c1c2c2ccccc2n1CC(OC(=O)N1CCN(Cc2ccccc2)CC1)CC3 (stereo not shown) [Cpd 44, 12,13-{2-[(4-benzyl-piperazin-1-yl)carbonyloxy]-butan-1,4-yl}-12,13-dihydro-5,7-dioxo-6H-indolo[2,3-a]pyrrolo[3,4-c]carbazole] | 6.91 |
| Cc1ccc(CNC(=O)OC2CCn3c4ccccc4c4c5c(c6c7ccccc7n(c6c43)C2)C(=O)NC5=O)cc1 (stereo not shown) [Cpd 45, 12,13-{2-[(4-methyl-benzyl)carbamoyloxy]-butan-1,4-yl}-12,13-dihydro-5,7-dioxo-6H-indolo[2,3-a]pyrrolo[3,4-c]carbazole] | 7.21 |
| O=C(NCc1ccc2c(c1)OCO2)OC1CCn2c3ccccc3c3c4c(c5c6ccccc6n(c5c32)C1)C(=O)NC4=O (stereo not shown) [Cpd 46, 12,13-{2-[(benzo[1,3]dioxol-5-yl-methyl)carbamoyloxy]-butan-1,4-yl}-12,13-dihydro-5,7-dioxo-6H-indolo[2,3-a]pyrrolo[3,4-c]carbazole] | 7.18 |
| O=C(NCc1ccncc1)OC1CCn2c3ccccc3c3c4c(c5c6ccccc6n(c5c32)C1)C(=O)NC4=O (stereo not shown) [Cpd 47, 12,13-{2-[(pyridin-4-yl-methyl)carbamoyloxy]-butan-1,4-yl}-12,13-dihydro-5,7-dioxo-6H-indolo[2,3-a]pyrrolo[3,4-c]carbazole] | 7.52 |
| Cc1ccc(CNC(=O)OC2CCn3c4ccccc4c4c5c(c6c7ccccc7n(c6c43)C2)C(=O)NC5=O)o1 (stereo not shown) [Cpd 48, 12,13-(2-{[(5-methyl-furan-2-yl)methyl]carbamoyloxy}-butan-1,4-yl)-12,13-dihydro-5,7-dioxo-6H-indolo[2,3-a]pyrrolo[3,4-c]carbazole] | 7.96 |
| COc1ccc(CCNC(=O)OC2CCn3c4ccccc4c4c5c(c6c7ccccc7n(c6c43)C2)C(=O)NC5=O)cc1OC (stereo not shown) [Cpd 49, 12,13-(2-{[2-(3,4-dimethoxy-phenyl)ethyl]carbamoyloxy}-butan-1,4-yl)-12,13-dihydro-5,7-dioxo-6H-indolo[2,3-a]pyrrolo[3,4-c]carbazole] | 7.41 |

— patent US20070249590A1, “Substituted indolo[2,3-a]pyrrolo[3,4-c]carbazole compounds useful in treating kinase disorders” (priority 2005, published 2007)
